According to patent US9920049B2 (priority 2014, dated 2018):

System: HBsAg
Assay: HBsAg assay (CLIA of secreted HBsAg in HepG2.2.15 culture supernatant)
Type: cell-based, HBV
Settings: Hepatitis B virus
Procedure: HepG2.2.15 cells (Acs et al. Proc Natl Acad Sci USA, 84, (1987), 4641-4), a constitutively HBV-expressing cell line were cultured in DMEM+Glutamax-I medium (Invitrogen, Carlsbad, Calif., USA), supplemented with 10% fetal bovine serum (Invitrogen) and G418 (Invitrogen) at a final concentration of 200 mg/L and maintained in 5% CO2 at 37° C.
HepG2.2.15 cells were seeded in duplicate into white, 96-well plates at 1.5×10^4 cells/well. The cells were treated with a three-fold serial dilution series of the compounds in DMSO. The final DMSO concentration in all wells was 1% and DMSO was used as no drug control.
The HBsAg chemiluminescence immunoassay (CLIA) kit (Autobio Diagnostics Co., Zhengzhou, China, Catalog number: CL0310-2) was used to measure the levels of secreted HBV antigens semi-quantitatively. For the detection 50 μL/well culture supernatant was used and HBsAg was quantified using HBsAg chemiluminescence immunoassay (CLIA) kit (Autobio Diagnostics Co., Zhengzhou, China, Catalog number: CL0310-2), 50 μl of the supernatant was transferred to the CLIA assay plate and 50 μL of enzyme conjugate reagent was added into each well. The plates were sealed and gently agitated for 1 hour at room temperature. The supernatant-enzyme-mixture was discarded and wells were washed 6 times with 300 μL of PBS. The residual liquid was removed by plating the CLIA plate right side down on absorbent tissue paper. 25 μL of substrates A and B were added to each well. Luminance was measured using a luminometer (Mithras LB 940 Multimode Microplate Reader) after 10 minutes incubation. Dose-response curves were generated and the IC50 value was extrapolated by using the E-WorkBook Suite (ID Business Solutions Ltd., Guildford, UK).
The compounds of the present invention were tested for their capacity to inhibit HBsAg as described herein.

Row | SMILES | IC50
1 | CCC1Cc2cc(OCCCOC)c(OC)cc2-c2cc(=O)c(C(=O)NCc3ccccc3)cn21 (centres unmarked) [Example 15, N-benzyl-6-ethyl-10-methoxy-9-(3-methoxypropoxy)-2-oxo-6,7-dihydrobenzo[a]quinolizine-3-carboxamide] | 26.7 µM
2 | COCCCOc1cc2c(cc1Cl)-c1cc(=O)c(C(=O)Nc3nnn[nH]3)cn1C(C(C)C)C2 (centres unmarked) [Example 37, 10-chloro-6-isopropyl-9-(3-methoxypropoxy)-2-oxo-N-(1H-tetrazol-5-yl)-6,7-dihydrobenzo[a]quinolizine-3-carboxamide] | 5.9 µM
3 | CCC1Cc2cc(OCCCOC)c(OC)cc2-c2cc(=O)c(CO)cn21 (centres unmarked) [Example 20, 6-ethyl-3-(hydroxymethyl)-10-methoxy-9-(3-methoxy-propoxy)-6,7-dihydrobenzo[a]quinolizin-2-one] | 22.3 µM
4 | CCC1Cc2cc(OCCCOC)c(OC)cc2-c2cc(=O)c(CNC)cn21 (centres unmarked) [Example 27, 6-ethyl-10-methoxy-9-(3-methoxypropoxy)-3-(methylaminomethyl)-6,7-dihydrobenzo[a]quinolizin-2-one] | 15.8 µM
5 | CCC1Cc2cc(OCc3ccccc3)c(OC)cc2-c2cc(=O)c(C(=O)NC(C)COC)cn21 (centres unmarked) [Example 3, 9-benzyloxy-6-ethyl-10-methoxy-N-(2-methoxy-1-methyl-ethyl)-2-oxo-6,7-dihydrobenzo[a]quinolizine-3-carboxamide] | 31 µM
6 | CCC1Cc2cc(OCc3ccccc3)c(OC)cc2-c2cc(=O)c(C(=O)NC(C)CN(C)C)cn21 (centres unmarked) [Example 11, 9-benzyloxy-N-[2-(dimethylamino)-1-methyl-ethyl]-6-ethyl-10-methoxy-2-oxo-6,7-dihydrobenzo[a]quinolizine-3-carboxamide] | 23.9 µM
7 | CCC1Cc2cc(OCC3CC3)c(OC)cc2-c2cc(=O)c(C(=O)NC(C)COC)cn21 (centres unmarked) [Example 19, 9-(cyclopropylmethoxy)-6-ethyl-10-methoxy-N-(2-methoxy-1-methyl-ethyl)-2-oxo-6,7-dihydrobenzo[a]quinolizine-3-carboxamide] | 8 µM
8 | COc1cc2c(cc1OC)-c1cc(=O)c(C(=O)Nc3nnn[nH]3)cn1C(CC(F)(F)F)C2 (centres unmarked) [Example 35, 9,10-dimethoxy-2-oxo-N-(1H-tetrazol-5-yl)-6-(2,2,2-trifluoroethyl)-6,7-dihydrobenzo[a]quinolizine-3-carboxamide] | 12.9 µM
9 | COCCOc1cc(Cl)c2c(c1)CC(C(C)C)n1cc(C(=O)Nc3nnn[nH]3)c(=O)cc1-2 (centres unmarked) [Example 34, 11-chloro-6-isopropyl-9-(2-methoxyethoxy)-2-oxo-N-(1H-tetrazol-5-yl)-6,7-dihydrobenzo[a]quinolizine-3-carboxamide] | 18.3 µM
10 | COCCCOc1cc2c(cc1OC)-c1cc(=O)c(C(=O)Nc3nnn[nH]3)cn1C(C(C)(C)C)C2 (centres unmarked) [Example 32, 6-tert-butyl-10-methoxy-9-(3-methoxypropoxy)-2-oxo-N-(1H-tetrazol-5-yl)-6,7-dihydrobenzo[a]quinolizine-3-carboxamide] | 0.38 µM
11 | COCCCOc1cc2c(cc1Cl)-c1cc(=O)c(C(=O)Nc3nnn[nH]3)cn1[C@H](C(C)C)C2 [Example 38, (+)-10-chloro-6-isopropyl-9-(3-methoxypropoxy)-2-oxo-N-(1H-tetrazol-5-yl)-6,7-dihydrobenzo[a]quinolizine-3-carboxamide] | 2.3 µM
12 | CC[C@@H]1Cc2cc(OC)c(OC)cc2-c2cc(=O)c(C(=O)Nc3nnn[nH]3)cn21 [Example 31, (6R)-6-ethyl-9,10-dimethoxy-2-oxo-N-(1H-tetrazol-5-yl)-6,7-dihydrobenzo[a]quinolizine-3-carboxamide] | 44.1 µM
13 | CCOc1cc2c(cc1OC)-c1cc(=O)c(C(=O)NC(C)COC)cn1C(CC)C2 (centres unmarked) [Example 17, 9-ethoxy-6-ethyl-10-methoxy-N-(2-methoxy-1-methyl-ethyl)-2-oxo-6,7-dihydrobenzo[a]quinolizine-3-carboxamide] | 2.2 µM
14 | CCC1Cc2cc(OCc3ccccc3)c(OC)cc2-c2cc(=O)c(C(=O)NS(C)(=O)=O)cn21 (centres unmarked) [Example 4, 9-benzyloxy-6-ethyl-10-methoxy-N-methylsulfonyl-2-oxo-6,7-dihydrobenzo[a]quinolizine-3-carboxamide] | 0.92 µM
15 | CCC1Cc2cc(OCc3ccccc3)c(OC)cc2-c2cc(=O)c(C(=O)NC(C)CO)cn21 (centres unmarked) [Example 7, 9-benzyloxy-6-ethyl-N-(2-hydroxy-1-methyl-ethyl)-10-methoxy-2-oxo-6,7-dihydrobenzo[a]quinolizine-3-carboxamide] | 7.8 µM
16 | CCC1Cc2cc(OCc3ccccc3)c(OC)cc2-c2cc(=O)c(C(=O)NCCN(C)C)cn21 (centres unmarked) [Example 8] | 33.7 µM
17 | CCCNC(=O)c1cn2c(cc1=O)-c1cc(OC)c(OCc3ccccc3)cc1CC2CC (centres unmarked) [Example 5, 9-benzyloxy-6-ethyl-10-methoxy-2-oxo-N-propyl-6,7-dihydrobenzo[a]quinolizine-3-carboxamide] | 5.6 µM
18 | CCC1Cc2cc(OCCCOC)c(OC)cc2-c2cc(=O)c(C(=O)NC(C)COC)cn21 (centres unmarked) [Example 16, 6-ethyl-10-methoxy-N-(2-methoxy-1-methyl-ethyl)-9-(3-methoxypropoxy)-2-oxo-6,7-dihydrobenzo[a]quinolizine-3-carboxamide] | 18.4 µM
19 | CCC1Cc2cc(OCCCOC)c(OC)cc2-c2cc(=O)c(CN3CCCC3C(=O)O)cn21 (centres unmarked) [Example 23, 1-[[6-ethyl-10-methoxy-9-(3-methoxypropoxy)-2-oxo-6,7-dihydrobenzo[a]quinolizin-3-yl]methyl]pyrrolidine-2-carboxylic Acid] | 17.3 µM
20 | CCC1Cc2cc(OCC(C)C)c(OC)cc2-c2cc(=O)c(C(=O)NC(C)COC)cn21 (centres unmarked) [Example 18, 6-ethyl-9-isobutoxy-10-methoxy-N-(2-methoxy-1-methyl-ethyl)-2-oxo-6,7-dihydrobenzo[a]quinolizine-3-carboxamide] | 4.9 µM
21 | CCC1Cc2cc(OCCCOC)c(OC)cc2-c2cc(=O)c(CN(C)CC(=O)O)cn21 (centres unmarked) [Example 30, 2-[[6-ethyl-10-methoxy-9-(3-methoxypropoxy)-2-oxo-6,7-dihydrobenzo[a]quinolizin-3-yl]methyl-methyl-amino]acetic Acid] | 16.9 µM
22 | CCC1Cc2cc(OCCCOC)c(OC)cc2-c2cc(=O)c(COC)cn21 (centres unmarked) [Example 29, 6-ethyl-10-methoxy-3-(methoxymethyl)-9-(3-methoxypropoxy)-6,7-dihydrobenzo[a]quinolizin-2-one] | 1.5 µM
23 | CCC1Cc2cc(OCCCOC)c(OC)cc2-c2cc(=O)c(CN3CCCC3)cn21 (centres unmarked) [Example 25, 6-ethyl-10-methoxy-9-(3-methoxypropoxy)-3-(pyrrolidin-1-ylmethyl)-6,7-dihydrobenzo[a]quinolizin-2-one] | 16.4 µM
24 | CCC1Cc2cc(OCCCOC)c(OC)cc2-c2cc(=O)c(C(=O)Nc3nnn[nH]3)cn21 (centres unmarked) [Example 14, 6-ethyl-10-methoxy-9-(3-methoxypropoxy)-2-oxo-N-(1H-tetrazol-5-yl)-6,7-dihydrobenzo[a]quinolizine-3-carboxamide] | 1.1 µM
25 | CCC1Cc2cc(OCCCOC)c(OC)cc2-c2cc(=O)c(CN3CCOCC3)cn21 (centres unmarked) [Example 26, 6-ethyl-10-methoxy-9-(3-methoxypropoxy)-3-(morpholinomethyl)-6,7-dihydrobenzo[a]quinolizin-2-one] | 16.2 µM
26 | CCC1Cc2cc(OCc3ccccc3)c(OC)cc2-c2cc(=O)c(C(=O)NO)cn21 (centres unmarked) [Example 10, 9-benzyloxy-6-ethyl-10-methoxy-2-oxo-6,7-dihydrobenzo[a]quinolizine-3-carbohydroxamic Acid] | 20.3 µM
